# Assay results published in US20050038015A1, “Partial dopamine-D 2 receptor agonist plus serotonin and/oder noradrenaline inhibitor activity” (priority 2002, published 2005).
# Like-named read-outs stand apart in the source and are kept apart here.
# Columns and labels:
# [1] = test system: dialysate dopamine in the nucleus accumbens; assay: In vivo microdialysis, dialysate dopamine; design: species or system rat; settings: read-out: [dopamine] ED75
# Experimental: (§1) Microdialysis allows an insight into changes in neurotransmitters and their metabolites in the brain extracellular space in discrete brain regions in awake freely moving animals. […] The in vivo effects of the (mixtures of) compounds of the invention on dopamine, serotonin and noradrenalin levels were determined by microdialysis according to the protocol given below:
# (§2) Dopamine and Serotonin Measurements by In Vivo Microdialysis
# (§3) Surgery. […] Antibacterial agents and analgesics were administered prior to (Baytril (150 μl/rat i.m.)) and after (Temgesic (0.005-0.01 mg/kg i.m. non-diluted/rat)) surgery. […] In other animals, the skull is exposed and a 1 mm bore-hole is drilled through the bone above the prefrontal cortex (co-ordinates from bregma (mm): anterior-posterior +3.2, mediolateral 0.6 and dorsoventral −1.5 at a 0° angle (from dura)) in those animals where determination of dialysate noradrenaline levels is required. Smaller bore holes are made and three screws are inserted within the skull. The intracerebral guide cannula (CMA, Carnegie) is lowered through the hole until the tip is immediately above the nucleus accumbens or prefrontal cortex. The guide together with the screws are cemented onto the bone with dental cement and the surrounding skin sutured. Animals are allowed to recover at least six days prior to microdialysis experimentation.
# (§4) Microdialysis experimentation. On the day of the experiment microdialysis probes (CMA 12, 0.5 mm outer diameter, Stockholm, Sweden) are inserted through the guide cannula into the nucleus accumbens (2 mm membrane length) or prefrontal cortex (4 mm membrane length). The Inlet of the probe is connected with low volume tubing (F.E.B-tubing, 1.2 μl/10 cm, Carnegie) via a liquid-swivel (dual channel; Instech, UK) on a counterbalanced arm, to a syringe-pump (Harvard, 10 channel). […] The outlet of the probe is connected with low volume tubing via the liquid swivel to a CMA 140 fraction collector. The tubing is supported by a stainless steel wire which leads from the swivel down to a clip, which fits to a collar around the neck of an animal. […] Samples are collected at a flow rate of 2 μl/min at 20 min intervals (40 μl volume) in vials containing 50 μl of a HCOOH/cysteine solution (0.02M/0.2 w/v %) to prevent oxidation of the compounds. Following a baseline period of 5 samples, drugs are administered systemically and at least a further 8 samples collected. All samples were stored post-collection on dry ice and frozen at […] prior to analysis by high-performance liquid chromatography (HPLC) coupled to electrochemical detection described below.
# (§5) Analysis of dialysate dopamine and serotonin. […] The final pH was adjusted to 4.9 with 1N NaOH. Dopamine and serotonin are electrochemically detected with an EG&G (model 400, Princeton Applied Research) controller equipped with a glassy carbon working electrode (VT-03; Antec, Leiden, the Netherlands). The potential is set at 600 mV versus an Ag/AgCl reference electrode. The output is recorded on a computer equipped with Hyperchem™ (Hewlett-Packard Inc.) which measures peak height values. Calculations (μg/20 min) are made using peak height values of analysed standard solutions containing known amounts of dopamine and serotonin. Analysis of dialysate dopamine and noradrenaline. […] The basal mobile phase consists of: 50 mM NaAc, and 0.27 mM EDTA. The final concentration of 1-octanesulfonic acid (NOS) and methanol, as well as the final pH (adjusted with HAc), vary with the different brain areas under examination. The compounds are electrochemically detected with an EG&G (model 400, Princeton Applied Research) controller equipped with a glassy carbon working electrode (VT-03; Antec, Leiden, the Netherlands). The potential is set at 450 mV versus a Hyref reference electrode.
# [2] = test system: dialysate serotonin in the nucleus accumbens; assay: In vivo microdialysis, dialysate serotonin; settings: awake freely moving rat; for ED150: p.o. or i.p. (italic); for [serotonin] ED75 (footnote 1): footnote 1: ED75 instead of ED150
# Experimental: as §1, §2, §3, §4, §5
# serotonin reuptake sites = molecular target: T1, serotonin reuptake sites (Rattus norvegicus, UniProt P31652); assay: In vitro functional inhibition of [3H]-serotonin reuptake in rat brain synaptosomes; assay type: biochemical
# T1 construct: the cerebral hemispheres were rapidly removed and a P2-synaptosomal fraction was prepared; from tissue; host or cells: rat (Wistar) cerebral hemispheres, P2-synaptosomal fraction
# Experimental: (§6) The in vitro functional activity at dopamine-D2 receptors, Including the intrinsic activity (ε) of the compounds which can be used according to the invention as well as relevant reference compounds was measured by their ability to inhibit forskolin-induced [^3H]cAMP accumulation. Serotonin and noradrenaline reuptake inhibitory activity was measured In rat brain synaptosomes.
# In Vitro Functional Inhibition of [^3H]-serotonin Reuptake
# Synaptosomes were pre-incubated in absence or presence of the test compound for 15 min at 37° C., in a medium containing the monoamine oxidase inhibitor pargyline (7 μM). Subsequently, the synaptosomes were exposed to [^3H]-serotonin ([…] final concentration) for 10 min.
# [^3H]-serotonine uptake was stopped by filtration with a harvester and the non-incorporated radioactivity was removed by an extensive washing programme. The filter plates with synaptosomes were dehydrated and the amount of [^3H]-serotonin present was determined by Betaplate liquid scintillation counting.
# [3] = molecular target: noradrenaline reuptake sites (Rattus norvegicus, UniProt Q9WTR4); assay: In vitro functional inhibition of [3H]-noradrenalin reuptake in rat hypothalamus synaptosomes; assay type: biochemical
# Experimental: as §6
# Synaptosomes were pre-incubated in absence or presence of the test compound for 10 min at 37° C., in a medium containing the monoamine oxidase inhibitor pargyline (7 μM). Subsequently, the synaptosomes were exposed to [^3H]-noradrenaline ([…] final concentration) for 15 min.
# [^3H]-noradrenaline uptake was stopped by filtration with a harvester and the non-incorporated radioactivity was removed by an extensive washing programme. The filter plates with synaptosomes were dehydrated and the amount of [^3H]-noradrenaline present was determined by Betaplate liquid scintillation counting.
# [4] = molecular target: human dopamine D2,L receptors (Homo sapiens, UniProt P14416); assay: Inhibition of forskolin-induced [3H]-cAMP accumulation in CHO-K1 cells
# [5] = test system: noradrenaline levels in the prefrontal cortex; assay: In vivo microdialysis, dialysate noradrenaline; settings: awake freely moving rat, p.o. or i.p. (italic)
# Experimental: as §1, §2, §3
# Microdialysis experimentation. On the day of the experiment microdialysis probes (CMA 12, 0.5 mm outer diameter, Stockholm, Sweden) are inserted through the guide cannula into the nucleus accumbens (2 mm membrane length) or prefrontal cortex (4 mm membrane length). The Inlet of the probe is connected with low volume tubing (F.E.B-tubing, 1.2 μl/10 cm, Carnegie) via a liquid-swivel (dual channel; Instech, UK) on a counterbalanced arm, to a syringe-pump (Harvard, 10 channel). […] The outlet of the probe is connected with low volume tubing via the liquid swivel to a CMA 140 fraction collector. […]
# Analysis of dialysate dopamine and serotonin. […] Dopamine and serotonin are electrochemically detected with an EG&G (model 400, Princeton Applied Research) controller equipped with a glassy carbon working electrode (VT-03; Antec, Leiden, the Netherlands). […] The output is recorded on a computer equipped with Hyperchem™ (Hewlett-Packard Inc.) which measures peak height values. Calculations (μg/20 min) are made using peak height values of analysed standard solutions containing known amounts of dopamine and serotonin. […] The compounds are electrochemically detected with an EG&G (model 400, Princeton Applied Research) controller equipped with a glassy carbon working electrode (VT-03; Antec, Leiden, the Netherlands). […]
# [6] = nucleus accumbens, awake freely moving rat, p.o. or i.p. (italic)
# [7] = rat brain synaptosomes, read-out: 5-HT uptake pIC50 (converted)
# [8] = fraction of full agonism (ε = 1, quinpirole)
# T1 sequence (P31652 whole entry): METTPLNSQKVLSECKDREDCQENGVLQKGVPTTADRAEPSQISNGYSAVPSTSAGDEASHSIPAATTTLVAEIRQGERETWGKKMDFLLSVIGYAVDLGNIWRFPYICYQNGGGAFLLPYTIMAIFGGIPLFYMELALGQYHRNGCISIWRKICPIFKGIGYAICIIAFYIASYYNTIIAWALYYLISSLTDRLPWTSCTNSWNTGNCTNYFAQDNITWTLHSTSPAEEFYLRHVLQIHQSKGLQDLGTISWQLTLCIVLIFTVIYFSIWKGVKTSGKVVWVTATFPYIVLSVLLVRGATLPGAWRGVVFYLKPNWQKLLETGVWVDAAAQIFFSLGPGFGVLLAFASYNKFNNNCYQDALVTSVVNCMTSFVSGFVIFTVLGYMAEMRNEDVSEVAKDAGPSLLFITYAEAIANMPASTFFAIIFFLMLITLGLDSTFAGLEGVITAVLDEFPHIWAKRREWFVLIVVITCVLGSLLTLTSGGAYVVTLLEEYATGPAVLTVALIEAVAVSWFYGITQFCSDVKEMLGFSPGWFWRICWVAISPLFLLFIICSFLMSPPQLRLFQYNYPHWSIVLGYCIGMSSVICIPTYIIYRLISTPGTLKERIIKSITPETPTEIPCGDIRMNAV
# Chain of human dopamine D2,L receptors (P14416 whole entry): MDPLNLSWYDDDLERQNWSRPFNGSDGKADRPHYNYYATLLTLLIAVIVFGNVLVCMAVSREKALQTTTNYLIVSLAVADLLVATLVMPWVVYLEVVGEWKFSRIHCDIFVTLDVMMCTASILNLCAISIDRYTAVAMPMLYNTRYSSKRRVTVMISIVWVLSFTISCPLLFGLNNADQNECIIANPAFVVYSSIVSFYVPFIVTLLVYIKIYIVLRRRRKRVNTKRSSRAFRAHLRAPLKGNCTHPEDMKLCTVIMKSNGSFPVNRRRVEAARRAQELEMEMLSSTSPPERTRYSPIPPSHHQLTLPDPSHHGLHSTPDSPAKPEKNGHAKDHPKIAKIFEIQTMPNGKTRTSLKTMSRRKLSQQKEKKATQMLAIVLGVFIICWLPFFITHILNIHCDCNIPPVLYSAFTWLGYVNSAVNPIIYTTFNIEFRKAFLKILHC
compound,measurement,setting,value
CCCN1CCC[C@@H]2Cc3n[nH]cc3C[C@H]21 [quinpirole],ED75,[1]; [6],0.04 mg/kg
same,ED150,[2],> 3 mg/kg
O=c1[nH]c2cccc(N3CCN(CCCc4c[nH]c5ccccc45)CC3)c2o1 [example 1e],IC50,serotonin reuptake sites; [7],251 nM
same,NA uptake pIC50,[3]; rat hypothalamus synaptosomes,<5.0
same,EC50,[4],< 1 nM
same,cAMP accum. ε (intrinsic activity),[4]; [8],0.60
CCCN1CCC[C@@H](c2cccc(O)c2)C1 [preclamol],IC50,serotonin reuptake sites; [7],> 10000 nM
same,NA uptake pIC50,[3]; rat hypothalamus synaptosomes,5.3
same,ED75,[1]; [6],14.5 mg/kg
same,ED150,[2],> 30 mg/kg
same,cAMP accum. ε (intrinsic activity),[4]; [8],0.36
CN1CCN(c2cccc3[nH]c(=O)oc23)CC1 [SLV 308],IC50,serotonin reuptake sites; [7],> 10000 nM
same,NA uptake pIC50,[3]; rat hypothalamus synaptosomes,<5.0
same,ED75,[1]; [6],0.04 mg/kg
same,[serotonin] ED75 (footnote 1),[2],0.45^1 mg/kg
same,[noradren] ED150,[5],0.53 mg/kg
same,EC50,[4],31.6 nM
same,EC50,[4]; pEC50 (inhibition of cAMP formation),10 nM
O=c1[nH]c2cccc(N3CCN(Cc4cccc(-c5ccccc5)c4)CC3)c2o1 [bifeprunox],IC50,serotonin reuptake sites; [7],15800 nM
same,NA uptake pIC50,[3]; rat hypothalamus synaptosomes,4.6
same,ED75,[1]; Rattus norvegicus,> 10 mg/kg
same,[serotonin] ED75 (footnote 1),[2],>10^1 mg/kg
same,EC50,[4],15.8 nM
same,cAMP accum. ε (intrinsic activity),[4],0.20
CNCCCN1c2ccccc2CCc2ccccc21 [DMI],ED75,[1]; [6],> 3 mg/kg
same,ED150,[2],> 3 mg/kg
same,[noradren] ED150,[5],1.64 mg/kg
same,EC50,[4],> 1000 nM
same,cAMP accum. ε (intrinsic activity),[4],0.12
Fc1ccc([C@@H]2CCNC[C@H]2COc2ccc3c(c2)OCO3)cc1 [paroxetine],NA uptake pIC50,[3],<5.0
same,ED75,[1]; [6],> 10 mg/kg
same,ED150,[2],< 10 mg/kg
same,EC50,[4],> 1000 nM
same,cAMP accum. ε (intrinsic activity),[4],0.36
CCN(CC)C(=O)C1(c2ccccc2)CC1CN (stereo not drawn) [milnacipran],IC50,serotonin reuptake sites,251 nM
same,NA uptake pIC50,[3],5.5
same,ED75,[1]; [6],> 30 mg/kg
same,ED150,[2],5.5 mg/kg
same,[noradren] ED150,[5],2.41 mg/kg
same,EC50,[4],> 1000 nM
same,cAMP accum. ε (intrinsic activity),[4],0.21
CCN(CC)C(=O)N[C@H]1C[C@@H]2c3cccc4[nH]cc(c34)C[C@H]2N(C)C1 [terguride],IC50,serotonin reuptake sites; [7],> 10000 nM
same,NA uptake pIC50,[3]; rat hypothalamus synaptosomes,<5.0
same,ED75,[1]; [6],> 10 mg/kg
same,ED150,[2],> 10 mg/kg
same,EC50,[4],0.398 nM
same,agonist properties at human dopamine D2 receptors (FIG. 2 upper panel),[4]; agonist mode,partial agonists
same,antagonist effects against the reference agonist quinpirole (FIG. 2 lower panel),[4]; antagonist mode versus quinpirole,partial antagonists
same,cAMP accum. ε (intrinsic activity),[4]; [8],0.38
Cn1cc(CCCN2CCN(c3cccc4[nH]c(=O)oc34)CC2)c2cc(F)ccc21 [example 1a],IC50,serotonin reuptake sites; [7],126 nM
same,NA uptake pIC50,[3]; rat hypothalamus synaptosomes,<5.0
same,ED75,[1]; [6],8.14 mg/kg
same,ED150,[2],2.52 mg/kg
same,EC50,[4],> 1000 nM
same,cAMP accum. ε (intrinsic activity),[4]; [8],0.27
COCCCC/C(=N\OCCN)c1ccc(C(F)(F)F)cc1 [fluvoxamine],NA uptake pIC50,[3]; rat hypothalamus synaptosomes,5.3
same,EC50,[4],> 1000 nM
same,cAMP accum. ε (intrinsic activity),[4]; [8],0.10
O=c1[nH]c2cccc(N3CCN(CCCc4c[nH]c5ccc(F)cc45)CC3)c2o1 [example 1c],IC50,serotonin reuptake sites; [7],25.1 nM
same,NA uptake pIC50,[3]; rat hypothalamus synaptosomes,<5.0
same,ED75,[1]; [6],3.92 mg/kg
same,ED150,[2],14.8 mg/kg
same,EC50,[4],158 nM
same,cAMP accum. ε (intrinsic activity),[4]; [8],0.53
C=CCN1CCc2nc(N)sc2CC1 [talipexole],IC50,serotonin reuptake sites,> 10000 nM
same,NA uptake pIC50,[3],<5.0
same,ED75,[1]; [6],< 0.1 mg/kg
same,ED150,[2],> 10 mg/kg
same,EC50,[4],39.8 nM
same,agonist properties at human dopamine D2 receptors (FIG. 2 upper panel),[4],full agonists
same,cAMP accum. ε (intrinsic activity),[4],1.00
Cc1cccc2c(CCCN3CCN(c4cccc5[nH]c(=O)oc45)CC3)c[nH]c12 [example 1d],IC50,serotonin reuptake sites; [7],398 nM
same,NA uptake pIC50,[3]; rat hypothalamus synaptosomes,<5.0
same,EC50,[4],< 1 nM
same,cAMP accum. ε (intrinsic activity),[4]; [8],0.56
O=c1[nH]c2cccc(N3CCN(CCCc4cn5c6c(cc(F)cc46)CCC5)CC3)c2o1 [example 1b],IC50,serotonin reuptake sites; [7],> 10000 nM
same,NA uptake pIC50,[3]; rat hypothalamus synaptosomes,5.2
same,cAMP accum. ε (intrinsic activity),[4]; [8],0.27
CCOc1ccccc1OC(c1ccccc1)C1CNCCO1 (stereo not drawn) [reboxetine],ED75,[1]; [6],> 3 mg/kg
same,ED150,[2],> 3 mg/kg
same,[noradren] ED150,[5],<3.0 mg/kg
